The NIST ThermoML archive (doi:10.1021/je050333h)

Experiment: cn = amount concentration of the nth substance listed, in mol/dm3
Conditions: 101 kPa, Liquid; for speed of sound: Sing-around technique in a fixed-path interferometer

CCCCC(CC)COC(=O)CC(C(=O)OCC(CC)CCCC)S(=O)(=O)[O-].[Na+] (stereo not given) [sodium bis(2-ethylhexyl) sulfosuccinate] + CC(C)CC(C)(C)C
Conditions | kinematic viscosity [m2/s] | mass density [kg/m3] | speed of sound [m/s]
303.15 K, c1 = 0.2986 | – | 728.39 | –
303.15 K, c1 = 0.3988 | 1.07e-06 | 745.5 | –
303.15 K, c1 = 0.5185 | 1.32e-06 | 767 | –
303.15 K, c1 = 0.6002 | 1.56e-06 | 785.6 | –
303.15 K, c1 = 0.6974 | 1.93e-06 | 804.41 | –
303.15 K, c1 = 0.7972 | 2.53e-06 | 820.98 | –
303.15 K, c1 = 0.8975 | 3.43e-06 | 838.76 | –
303.15 K, c1 = 1.002 | 4.77e-06 | 856.54 | –
313.15 K, c1 = 0.097 | 6.55e-07 | 687.78 | 1020.3
313.15 K, c1 = 0.1956 | 7.34e-07 | 700.9 | 1021.5
313.15 K, c1 = 0.2946 | 8.29e-07 | 718.5 | 1024
313.15 K, c1 = 0.3949 | 9.53e-07 | 738.2 | 1026.6
313.15 K, c1 = 0.5111 | 1.17e-06 | 756.1 | 1031.3
313.15 K, c1 = 0.5932 | 1.35e-06 | 776.5 | 1035.6
313.15 K, c1 = 0.6899 | 1.67e-06 | 795.7 | 1041.3
313.15 K, c1 = 0.7889 | 2.12e-06 | 812.51 | 1048.1
313.15 K, c1 = 0.8884 | 2.79e-06 | 830.24 | 1055.8
313.15 K, c1 = 0.9921 | 3.89e-06 | 847.98 | 1065.5
323.15 K, c1 = 0.0959 | 5.95e-07 | 680.26 | 979.8
323.15 K, c1 = 0.1937 | 6.66e-07 | 694.2 | 981.2
323.15 K, c1 = 0.2919 | 7.5e-07 | 712 | 984.1
323.15 K, c1 = 0.3904 | 8.59e-07 | 729.7 | 987.1
323.15 K, c1 = 0.505 | 1.04e-06 | 747 | 992.3
323.15 K, c1 = 0.5858 | 1.19e-06 | 766.8 | 996.8
323.15 K, c1 = 0.6822 | 1.47e-06 | 786.9 | 1002.8
323.15 K, c1 = 0.7807 | 1.83e-06 | 804.04 | 1009.9
323.15 K, c1 = 0.8792 | 2.35e-06 | 821.7 | 1018
323.15 K, c1 = 0.982 | 3.09e-06 | 839.35 | 1028
